Results: PubChem BioAssay AID330 (DTP/NCI, 2004)
Several values for one entry are separate records, joined by “and”; a condition that tells them apart may be missing. Equal entries are not always repeated. Inconclusive results and toxic doses are left out. Rule for the calls: active = survival T/C of 150% or more; inactive = T/C below 125% in these data.

Test system: P388 leukemia ip, CD2F1 mice, survival T/C
Experiment: NCI In Vivo Anticancer Drug Screen. Data for tumor model P388 Leukemia (intraperitoneal) in CD2F1 (CDF1) mice
Details: endpoint: median survival time, higher = longer survival
Method in brief: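 Mice carrying the transplanted tumor received test compound or vehicle. Survival was recorded in each group, and the value is the treated-group measurement divided by that of the vehicle-treated control group.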

[1] = dose: 25.0 mg/kg/injection, schedule: Q01DX009 (ip), vehicle: Klucel (hydroxypropylcellulose) (HPC)
[2] = dose: 50.0 mg/kg/injection, schedule: Q01DX009 (ip), vehicle: Klucel (hydroxypropylcellulose) (HPC)
[3] = dose: 100.0 mg/kg/injection, schedule: Q01DX009 (ip), vehicle: Klucel (hydroxypropylcellulose) (HPC)
[4] = dose: 200.0 mg/kg/injection, schedule: Q01DX009 (ip), vehicle: Klucel (hydroxypropylcellulose) (HPC)

Measured: T/C

CCCCOC(=O)N(CCF)N=O
inactive: dose: 3.12 mg/kg/injection, schedule: Q01DX001 (ip), vehicle: saline with Tween-80 109 % of control | dose: 6.25 mg/kg/injection, schedule: Q01DX001 (ip), vehicle: saline with Tween-80 118 % of control and 119 % of control | dose: 12.5 mg/kg/injection, schedule: Q01DX001 (ip), vehicle: saline with Tween-80 118 % of control and 119 % of control

CC1(C)N=C(N)N=C(N)N1c1ccc(CCc2ccccc2)cc1
inactive: dose: 37.5 mg/kg/injection, schedule: Q04DX003 (ip), vehicle: saline with Tween-80 87 % of control | dose: 75.0 mg/kg/injection, schedule: Q04DX003 (ip), vehicle: saline with Tween-80 100 % of control | dose: 100.0 mg/kg/injection, schedule: Q04DX003 (ip), vehicle: saline 120 % of control | dose: 200.0 mg/kg/injection, schedule: Q04DX003 (ip), vehicle: saline 100 % of control

COc1ccc(Cl)c(C)c1C(=O)OC1CC(OC2C(O)CC(OC3CCCC4C3C=CC3CCCC/C=C/C5C=C(C(=O)O)C(C)CC56OC(=O)C(=C6O)OC(=O)C34C)OC2C)OC(C)C1O (stereo not given)
inactive: [1] 103 % of control | [2] 97 % of control | [3] 89 % of control

Clc1ccc2nsnc2c1
inactive: dose: 6.25 mg/kg/injection, schedule: Q01DX009 (ip), vehicle: saline with Tween-80 101 % of control | dose: 12.5 mg/kg/injection, schedule: Q01DX009 (ip), vehicle: saline with Tween-80 95 % of control | dose: 25.0 mg/kg/injection, schedule: Q01DX009 (ip), vehicle: saline with Tween-80 95 % of control | [2] 101 % of control | dose: 50.0 mg/kg/injection, schedule: Q01DX009 (ip), vehicle: saline with Tween-80 104 % of control | [3] 107 % of control | dose: 100.0 mg/kg/injection, schedule: Q01DX009 (ip), vehicle: saline with Tween-80 104 % of control | [4] 108 % of control | dose: 200.0 mg/kg/injection, schedule: Q01DX009 (ip), vehicle: saline with Tween-80 95 % of control

CC1C(=O)CCC2C1(C)CCC1C2(C)CCC2(C)C3CC(C)(C(=O)O)CCC3(C)CCC12C (stereo not given)
inactive: dose: 12.5 mg/kg/injection, schedule: Q01DX005 (ip), vehicle: Klucel (hydroxypropylcellulose) (HPC) 94 % of control | dose: 25.0 mg/kg/injection, schedule: Q01DX005 (ip), vehicle: Klucel (hydroxypropylcellulose) (HPC) 100 % of control | dose: 50.0 mg/kg/injection, schedule: Q01DX005 (ip), vehicle: Klucel (hydroxypropylcellulose) (HPC) 88 % of control | dose: 100.0 mg/kg/injection, schedule: Q01DX005 (ip), vehicle: Klucel (hydroxypropylcellulose) (HPC) 87 % of control

CCC12OCCN1CCO2
inactive: dose: 200.0 mg/kg/injection, schedule: Q01DX009 (ip), vehicle: water 100 % of control | dose: 400.0 mg/kg/injection, schedule: Q01DX009 (ip), vehicle: water 100 % of control | dose: 800.0 mg/kg/injection, schedule: Q01DX009 (ip), vehicle: water 102 % of control | dose: 1600.0 mg/kg/injection, schedule: Q01DX009 (ip), vehicle: water 106 % of control

C1CC[N-]CC1.C1CC[N-]CC1.C1CC[N-]CC1.C1CC[N-]CC1.N#C[S-].N#C[S-].[Ni]
inactive: dose: 5.0 mg/kg/injection, schedule: Q04DX003 (ip), vehicle: saline with Tween-80 100 % of control | dose: 10.0 mg/kg/injection, schedule: Q04DX003 (ip), vehicle: saline with Tween-80 100 % of control

NC(=O)NN(Cc1ccc2c(c1)OCO2)N=O
inactive: [2] 99 % of control | [3] 107 % of control | [4] 91 % of control

CCCCCCC(/C=C/c1ccccc1)=N\O
inactive: dose: 6.25 mg/kg/injection, schedule: Q01DX009 (ip), vehicle: Klucel (hydroxypropylcellulose) (HPC) 107 % of control | dose: 12.5 mg/kg/injection, schedule: Q01DX009 (ip), vehicle: Klucel (hydroxypropylcellulose) (HPC) 102 % of control | [1] 103 % of control and 104 % of control | [2] 108 % of control and 112 % of control | [3] 103 % of control | [4] 104 % of control and 110 % of control | dose: 400.0 mg/kg/injection, schedule: Q01DX009 (ip), vehicle: Klucel (hydroxypropylcellulose) (HPC) 109 % of control and 98 % of control

COC(=O)C#CBr
inactive: dose: 3.13 mg/kg/injection, schedule: Q04DX003 (ip), vehicle: saline 100 % of control | dose: 6.25 mg/kg/injection, schedule: Q04DX003 (ip), vehicle: saline 100 % of control

O=C1c2ccccc2C(=O)N1C1CC(=O)n2c1nc1ccccc12 (stereo not given)
inactive: dose: 60.0 mg/kg/injection, schedule: Q01DX005 (ip), vehicle: saline with Tween-80 101 % of control | dose: 120.0 mg/kg/injection, schedule: Q01DX005 (ip), vehicle: saline with Tween-80 95 % of control | dose: 240.0 mg/kg/injection, schedule: Q01DX005 (ip), vehicle: saline with Tween-80 95 % of control

Cc1ccc(-n2cnc3sc4c(c3c2=O)CCCC4)cc1
inactive: dose: 60.0 mg/kg/injection, schedule: Q01DX005 (ip), vehicle: Klucel (hydroxypropylcellulose) (HPC) 100 % of control | dose: 120.0 mg/kg/injection, schedule: Q01DX005 (ip), vehicle: Klucel (hydroxypropylcellulose) (HPC) 89 % of control | dose: 240.0 mg/kg/injection, schedule: Q01DX005 (ip), vehicle: Klucel (hydroxypropylcellulose) (HPC) 90 % of control

C=CCC(NC(C)=O)C(=O)O (stereo not given)
inactive: dose: 25.0 mg/kg/injection, schedule: Q01DX009 (ip), vehicle: saline 88 % of control | dose: 50.0 mg/kg/injection, schedule: Q01DX009 (ip), vehicle: saline 101 % of control | dose: 100.0 mg/kg/injection, schedule: Q01DX009 (ip), vehicle: saline 93 % of control
